# Measurements from ChEMBL document CHEMBL4418306, “Quinolinone lysyl oxidase-like 2 inhibitors and uses thereof” (2017).
# Activity calls are given as the source filed them. The rule behind the calls is not given here.
# Tested on: Mus musculus
# Assay: Antifibrotic activity in C57BL/6 mouse model of bleomycin-induced lung fibrosis assessed as reduction in collagen level in lung at 60 mg/kg, po pre-treated 1 hr to 1 day before bleomycin injection and measured after 14 to 28 days by hydroxyproline assay
# Assay type: functional, organism-based
compound,measurement,value
NCc1cc(=O)c2cc(Br)ccc2[nH]1,Activity,Active
